{"source": "PubChem BioAssay (NCI)", "note": "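Test compounds were applied to cells in 96-well plates for 48 hours at 5 doses. TGI is the concentration that stops growth completely.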", "data": [{"system": "SW-620 colon", "assay": "DTP human tumour cell line panel, 48 h", "units": {"TGI": "µM"}, "values": [{"molecule": "O=C1NCCCNCCCNCCCNC(=O)c2cccc1n2", "TGI": "> 100"}, {"molecule": "CSC1=N/C(=C\\c2ccccc2)C(=O)N1CN1CCCCC1", "TGI": "> 100"}, {"molecule": "CN(C)/C=N/S(=O)(=O)c1nn2c(C=O)c(-c3ccc(Cl)cc3)nc2s1", "TGI": 1.52}, {"molecule": "COc1ccc(C2=Nn3c(nnc(Cc4ccc(Cl)cc4)c3=O)SC2)cc1", "TGI": "> 100"}, {"molecule": "COC1(OC)CC(CO)(CNc2nc(N)nc(Cl)c2/C=N\\O)C1", "TGI": "> 100"}, {"molecule": "CCOC(=O)C(Cc1cn(S(=O)(=O)c2ccccc2)c2ccccc12)(NC(C)=O)C(=O)OCC", "TGI": "> 100"}, {"molecule": "Cc1ccc2c(c1)C1(C)OC(C=CC1=O)O2", "note": "(stereo unspecified)", "TGI": 1.05}]}, {"system": "SN12C renal", "assay": "DTP human tumour cell line panel, 48 h", "units": {"TGI": "µM"}, "values": [{"molecule": "O=c1c2cc(S(=O)(=O)O)ccc2nc(COc2ccc(Oc3ccc(Cl)cc3Cl)cc2)n1-c1ccc(Cl)cc1Oc1c(Cl)cccc1Cl", "TGI": 99.4}, {"molecule": "C=C(CC[C@@H](C)[C@H]1CC[C@@]2(C)C3=C(CC[C@]12C)[C@@]1(C)CC[C@H](O)[C@@H](C)C1CC3)C(C)C", "note": "(stereo partly specified)", "TGI": 2.72}, {"molecule": "CC(=O)OCCOCn1cnc2c(Cl)nc(Cl)nc21", "TGI": 33.9}, {"molecule": "O=C1O/C(=C(/Cl)c2cccc3ccccc23)c2ccccc21", "TGI": "> 100"}, {"molecule": "COc1ccc(N2C(=O)c3cc(C)cnc3S2(=O)=O)cc1", "TGI": "> 100"}, {"molecule": "CC(=O)OC1(C)C=CC(=O)C=C1", "TGI": "> 100"}, {"molecule": "COc1cc(OC)c2c(=O)c(OC)c(-c3ccc4c(c3)OCO4)oc2c1", "TGI": "> 100"}, {"molecule": "CC1(C)CC(=O)C(/C=N/c2nc(-c3ccccc3)cs2)=C(O)C1", "TGI": "> 100"}, {"molecule": "NC(N)=N/N=C/c1c(-c2cccc([N+](=O)[O-])c2)nc2n1CCS2", "TGI": 58.5}, {"molecule": "Cn1c(=O)c2[nH]c(CCCCC(=O)O)nc2n(C)c1=O", "TGI": "> 100"}, {"molecule": "N#Cc1nc(C2=C(Cl)c3ccccc3OC2)[nH]c1C#N", "TGI": "> 100"}, {"molecule": "O=C1C=CC=C/C1=C1\\N=C(c2ccccc2OCC(=O)c2ccc(Br)cc2)SS1", "TGI": "> 100"}, {"molecule": "Cc1ccc(-c2c3nc(c(-c4ccc(C)cc4)c4ccc([nH]4)c(-c4ccc(OCC5COC(C)(C)O5)cc4)c4nc(c(-c5ccc(C)cc5)c5ccc2[nH]5)C=C4)C=C3)cc1", "note": "(stereo unspecified)", "TGI": "> 31.6"}, {"molecule": "N#Cc1c(-c2ccccc2)cc(Nc2cccc(C(F)(F)F)c2)n2c1nc1ccccc12", "TGI": 4.34}, {"molecule": "COc1ccc(CCN2CCN(CCc3ccc(OC)cc3)CC2)cc1", "TGI": "> 100"}, {"molecule": "CCn1c2ccccc2n2c(=O)c3c(c(C#N)c12)CCCC3", "TGI": "> 100"}, {"molecule": "c1ccc(CSP234N5CCN2CCN3CCN4CC5)c(CSP234N5CCN2CCN3CCN4CC5)c1", "TGI": "> 100"}, {"molecule": "O=c1[nH]c(Nc2nc3ccccc3[nH]2)nc2c1CCC2", "TGI": "> 100"}, {"molecule": "Cc1nn(C(=O)Cc2ccccc2)c2c1C(c1ccc(N(C)C)cc1)SC(N)=N2", "note": "(stereo unspecified)", "TGI": "> 100"}, {"molecule": "CCOP(=O)(O)C1C(CO)OC(n2ccc(=O)[nH]c2=O)C1O", "note": "(stereo unspecified)", "TGI": "> 100"}, {"molecule": "NC(=S)Nc1ccc(S(=O)(=O)Nc2ccc(S(N)(=O)=O)cc2)cc1", "TGI": "> 100"}, {"molecule": "O=C1NCCCNCCCNCCCNC(=O)c2cccc1n2", "TGI": "> 100"}, {"molecule": "CSC1=N/C(=C\\c2ccccc2)C(=O)N1CN1CCCCC1", "TGI": "> 100"}, {"molecule": "CN(C)/C=N/S(=O)(=O)c1nn2c(C=O)c(-c3ccc(Cl)cc3)nc2s1", "TGI": 5.94}, {"molecule": "COc1ccc(C2=Nn3c(nnc(Cc4ccc(Cl)cc4)c3=O)SC2)cc1", "TGI": "> 100"}, {"molecule": "COC1(OC)CC(CO)(CNc2nc(N)nc(Cl)c2/C=N\\O)C1", "TGI": "> 100"}, {"molecule": "Cc1ccc2c(c1)C1(C)OC(C=CC1=O)O2", "note": "(stereo unspecified)", "TGI": 0.862}]}, {"system": "SF-268 CNS", "assay": "DTP human tumour cell line panel, 48 h", "units": {"TGI": "µM"}, "values": [{"molecule": "O=c1c2cc(S(=O)(=O)O)ccc2nc(COc2ccc(Oc3ccc(Cl)cc3Cl)cc2)n1-c1ccc(Cl)cc1Oc1c(Cl)cccc1Cl", "TGI": 35.7}, {"molecule": "CC(=O)OCCOCn1cnc2c(Cl)nc(Cl)nc21", "TGI": 36.6}, {"molecule": "O=C1O/C(=C(/Cl)c2cccc3ccccc23)c2ccccc21", "TGI": "> 100"}, {"molecule": "COc1ccc(N2C(=O)c3cc(C)cnc3S2(=O)=O)cc1", "TGI": "> 100"}, {"molecule": "CC(=O)OC1(C)C=CC(=O)C=C1", "TGI": "> 100"}, {"molecule": "COc1cc(OC)c2c(=O)c(OC)c(-c3ccc4c(c3)OCO4)oc2c1", "TGI": 66.6}, {"molecule": "NC(N)=N/N=C/c1c(-c2cccc([N+](=O)[O-])c2)nc2n1CCS2", "TGI": 46.6}, {"molecule": "Cn1c(=O)c2[nH]c(CCCCC(=O)O)nc2n(C)c1=O", "TGI": "> 100"}, {"molecule": "N#Cc1nc(C2=C(Cl)c3ccccc3OC2)[nH]c1C#N", "TGI": "> 100"}, {"molecule": "O=C1C=CC=C/C1=C1\\N=C(c2ccccc2OCC(=O)c2ccc(Br)cc2)SS1", "TGI": "> 100"}, {"molecule": "Cc1ccc(-c2c3nc(c(-c4ccc(C)cc4)c4ccc([nH]4)c(-c4ccc(OCC5COC(C)(C)O5)cc4)c4nc(c(-c5ccc(C)cc5)c5ccc2[nH]5)C=C4)C=C3)cc1", "note": "(stereo unspecified)", "TGI": "> 31.6"}, {"molecule": "N#Cc1c(-c2ccccc2)cc(Nc2cccc(C(F)(F)F)c2)n2c1nc1ccccc12", "TGI": 11.5}, {"molecule": "COc1ccc(CCN2CCN(CCc3ccc(OC)cc3)CC2)cc1", "TGI": "> 100"}, {"molecule": "CCn1c2ccccc2n2c(=O)c3c(c(C#N)c12)CCCC3", "TGI": "> 100"}, {"molecule": "c1ccc(CSP234N5CCN2CCN3CCN4CC5)c(CSP234N5CCN2CCN3CCN4CC5)c1", "TGI": "> 100"}, {"molecule": "O=c1[nH]c(Nc2nc3ccccc3[nH]2)nc2c1CCC2", "TGI": "> 100"}, {"molecule": "Cc1nn(C(=O)Cc2ccccc2)c2c1C(c1ccc(N(C)C)cc1)SC(N)=N2", "note": "(stereo unspecified)", "TGI": "> 100"}, {"molecule": "CCOP(=O)(O)C1C(CO)OC(n2ccc(=O)[nH]c2=O)C1O", "note": "(stereo unspecified)", "TGI": "> 100"}, {"molecule": "O=C1NCCCNCCCNCCCNC(=O)c2cccc1n2", "TGI": "> 100"}, {"molecule": "CSC1=N/C(=C\\c2ccccc2)C(=O)N1CN1CCCCC1", "TGI": "> 100"}, {"molecule": "CN(C)/C=N/S(=O)(=O)c1nn2c(C=O)c(-c3ccc(Cl)cc3)nc2s1", "TGI": 12.6}, {"molecule": "COc1ccc(C2=Nn3c(nnc(Cc4ccc(Cl)cc4)c3=O)SC2)cc1", "TGI": "> 100"}]}]}
